Reference: patent US20260191817A1, “FIBROBLAST MODULATORS IN STROMA-RICH TUMORS” (UNIVERSITEIT GENT, priority 2022, published 2026)

How the values were obtained:
CT5.3 hTERT colon CAFs = experiment: AFM spheroid stiffness, CT5.3 hTERT colon CAFs; assay type: cell-based, human; settings: 1 μM, 48 h
Excerpt: It is well established that an increased tumor and ECM stiffness is associated with a negative prognosis as it promotes tumor growth, progression, therapy resistance, immunosuppression and metastasis. Stiffness is chiefly regulated by the action of the CAFs in the TME. Stiffness modulation is, therefore, a fitting read-out of activity in a screen for CAF modulators. To assess stiffness modulation, the stiffness of spheroids of CAF cells treated with test compounds was interrogated using atomic force microscopy (AFM) indentation and compared with untreated cells. AFM measurement of the stiffness (elasticity) of cells and spheroids is a technique well-known to those skilled in the art. AFM measures the force required to create a given deflection, this read-out is also known as the Young's modulus. AFM is widely used in biology and cancer research: altered physicochemical properties of live cells serve as a read-out of altered complex physiological processes.
U-shaped, 384-well ULA plates (cat. no. MS-9384UZ, S-bio) were seeded with a suspension of cell-specific culture media with cells. Cells were allowed to form spheroids for an appropriate time under treatment conditions before use in experiments. Cell culture dishes (cat. no. 734-2814, VWR) were filled with collagen gel and placed at 37° C. for an appropriate time to allow solidification. […]

[1] = test system: primary glioblastoma (GBM) cells; experiment: AFM spheroid stiffness, primary glioblastoma cells; assay type: cell-based, human; settings: 48 h
Procedure: Selectivity for CAFs with respect to normal fibroblasts and other cell types was assessed by performing an identical experiment with normal fibroblasts and other cell types, where compounds were considered selective for CAFs if they only modulate CAF stiffness.
U-shaped, 384-well ULA plates (cat. no. MS-9384UZ, S-bio) were seeded with a suspension of cell-specific culture media with cells. Cells were allowed to form spheroids for an appropriate time under treatment conditions before use in experiments. Cell culture dishes (cat. no. 734-2814, VWR) were filled with collagen gel and placed at 37° C. for an appropriate time to allow solidification. For each condition, spheroids were pooled in one cell culture dish. The medium was removed (stored at 37° C.) to promote attachment of the bottom of each spheroid to the collagen gel. The cell culture dishes were incubated at 37° C. After the incubation period, the stored medium was carefully (prevent detachment of spheroids) added to the dishes.
Mechanical measurements were performed using an atomic force microscope. To indent the spheroids an in-house made colloidal probe was used. Force curves were collected using an appropriate setpoint and probe speed (depending on the stiffness of the spheroids). On each spheroid multiple force curves were collected. Collected curves were then processed using the JPK DP software. Young's modulus was extracted from the force curves. All experiments were performed in biological triplicate.
To generate 3D cultures mimicking the complexity and pathophysiology of in vivo tumors, spheroids were used (cfr. point 4). Spheroids are considered to better simulate cellular heterogeneity, nutrient and oxygen gradients, cell-cell interactions, cell-matrix interactions, gene expression profiles, stromal interactions, therapeutic responses, multicellular resistance, drug penetration and anti-apoptotic signaling.

[2] = test system: 4T1 primary tumors and target organs for metastasis; experiment: 4T1-based intraductal model: histology and immunohistological stainings; assay type: in vivo, BALB/c mice; settings: for CD163 staining (tumor-associated macrophages) / CD11b staining (amounts of myeloid cells) / FAP-α staining / Ly6G staining: primary tumor tissue
Procedure: Isolated tissue of primary tumors, axillary lymph nodes, lungs and livers was fixed in buffered 3.5% formaldehyde for 24 h at room temperature (RT) and embedded in paraffin wax. Sections of 5 μm were deparaffinized, hydrated and stained with hematoxylin and eosin (H&E). To allow analysis, sections were dehydrated and mounted.
For Masson's trichrome staining, 3-5 μm thick sections were deparaffinized, hydrated and incubated ON in Bouin's solution to improve staining quality. The following day, slides were washed in distilled H2O (dH2O) and subsequently submerged 3 times in Biebrich scarlet-acid fuchsin solution, washed again in dH2O and incubated for 20 min in phosphomolybdic-phosphotungstic acid solution. Following the incubation in phosphomolybdic-phosphotungstic acid solution, slides were not rinsed, but immediately incubated in aniline blue solution for 8 min. After a final washing step with dH2O, slides were incubated in 1% acetic acid solution for 8 min. Sections were then quickly dehydrated through 94% ethyl alcohol, absolute alcohol to remove Biebrich scarlet-acid fuchsin staining and xylene to clear the slide before mounting with Tissue-Tek glass mounting medium. The staining visualizes collagen in blue, nuclei in dark red, cytoplasm in red/pink. Quantification of positive staining was established using color deconvolution (for Masson's trichrome staining) followed by automatic counting in ImageJ.
For immunohistochemical staining, antigen retrieval was performed on 3-5 μm thick deparaffinized sections with citrate buffer (10 mM tri-sodium citrate (Santa Cruz Biotechnology, Heidelberg, Germany) for α-SMA, CD11 b, Ly6G, and CD163), pH 6 or with Tris-EDTA buffer [pH 9, 10 mM Tris, 1 mM EDTA (Thermo Fisher Scientific) for PDPN and FAP-α) at 95° C. for 30 min using a pressurized Decloaking Chamber NxGen (Biocare Medical, CA, USA). The slides were cooled down to RT for 30 min and subsequently incubated on an orbital shaker at 20 rpm in a closed microscope box with tris-buffered saline (TBS, Biocare Medical)-wetted tissue paper for all blocking, rinsing (between every incubation step with TBS, 3 times for 2 min at RT) and staining steps. To block endogenous peroxidase activity, slides were first treated with 3% H2O2 in methanol for 10 min. To block non-specific binding sites, the slides were subsequently treated with serum-free protein block (Dako, Heverlee, Belgium) for 10 min.
The slides were then stained with primary antibodies diluted in Antibody Diluent (Dako) for 1 h at RT followed by incubation with secondary antibody for 30 min at RT. The used primary antibodies and dilutions were: anti-α-SMA (1:2000, clone EPR5368, Abcam, Cambridge, UK), anti-PDPN (1:100, clone PMab-1, Abcam), anti-FAP-α (1:100, polyclonal, Abcam), anti-CD11b (1:4000, clone EPR1344, Abcam), anti-Ly6G (1:1000, clone 1A8, Biolegend, CA, USA), anti-CD163 (1:500, clone EPR19518, Abcam). The used secondary antibodies were Rat-on-Mouse HRP-Polymer (Biocare Medical) for PDPN and Ly6G, and ready to-use Dako EnVision+ Rabbit for α-SMA, FAP-α, CD11b, and CD163. For visualization of HRP-positive staining, slides were treated with a 3,3′-diaminobenzidine (DAB)-containing buffer (Dako) for 10 min at RT. Counterstaining with hematoxylin was applied for 5 min at RT, followed by dehydration and mounting of the slides with Tissue-Tek glass mounting medium. Quantification of positive staining was established using color deconvolution (for DAB and hematoxylin counterstaining) followed by automatic counting in ImageJ.

[3] = compared to DMSO treatment, data not shown
[4] = primary tumor, compared to DMSO
[5] = primary tumors, compared to DMSO

Structure (SMILES)	spheroid stiffness (CT5.3 hTERT colon CAFs)	spheroid stiffness ([1]; 1 μM)	spheroid stiffness ([1]; 0.03-3 μM)	size of lung and liver metastases (H&E) [2, 3]	Masson's trichrome staining (collagen deposition) ([2]; liver tissue, compared to DMSO)	PDPN staining ([2]; liver tissue, compared to DMSO)	α-SMA staining (CAFs) ([2]; liver tissue, compared to DMSO)	CD163 staining (tumor-associated macrophages) [2]	CD11b staining (amounts of myeloid cells) ([2]; compared to DMSO)	FAP-α staining ([2]; compared to DMSO)	Ly6G staining ([2]; compared to DMSO)	Masson's trichrome staining (collagen deposition) [2, 4]	PDPN staining ([2]; primary tumors, P<0.001)	α-SMA staining (amount of CAFs) [2, 5]	size of axillary lymph node metastases (H&E) [2, 3]
COc1cc(C(=O)/C=C/c2ccc(F)cc2)cc(OC)c1OC [Compound A1, 3-(4-Fluorophenyl)-1-(3,4,5-trimethoxyphenyl)prop2-en-1-one]	decreased	no effect	nor did it change	Smaller	significant reduction	significantly decreased	significant reduction	significantly decreased	significantly decreased	significantly decreased	reduction	significantly decreased	significantly decreased	significantly decreased	–
COc1cc2oc(-c3ccc(F)cc3)cc(=O)c2c(OC)c1OC [Compound B1, 2-(4-Fluorophenyl)-5,6,7-trimethoxy-4H-chromen-4-one]	decreased	no effect	–	–	significant reduction	significantly decreased	significant reduction	significantly decreased	significantly decreased	significantly decreased	reduction	significantly decreased	significantly decreased	significantly decreased	smaller
